Each block holds one compound with its values, some of them ahead of it.
Columns and labels:
Conditions in all cases: 72 h
SK-BR-3 [1] = tested on: SK-BR-3
How it was run: (§1)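 Two sequential readouts followed a 72 h incubation of breast cancer cell lines with compound at 5 concentrations in 10-fold steps over a compound-specific 10,000-fold range: CellTox Green fluorescence (485/520 nm) for cell death, then CellTiter-Glo luminescence, after 10 min at room temperature, for viability. Each plate was normalised to 0.1 % DMSO and a positive kill control. Dose-response curves were fitted for EC50, censored at the top concentration.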

HCC1143 [2] = tested on: HCC1143
How it was run: as §1

BT-474 [3] = tested on: BT-474
How it was run: as §1

BT-549 [4] = tested on: BT-549
How it was run: as §1

MCF-10A [5] = tested on: MCF-10A
How it was run: as §1

HCC1937 [6] = tested on: HCC1937
How it was run: as §1

HDQ-P1 = tested on: HDQ-P1
How it was run: as §1

DU-4475 [7] = tested on: DU-4475
How it was run: as §1

MFM-223 [8] = tested on: MFM-223
How it was run: as §1

Hs578T [9] = tested on: Hs578T
How it was run: as §1

MFM-223 [10] = tested on: MFM-223; remark: listed apart in the source
Procedure: (§2)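 Drug sensitivity and resistance testing (DSRT) of breast cancer cell lines in 384-well plates, 5 concentrations in 10-fold dilutions over a compound-specific 10,000-fold range. After 72 h, cytotoxicity was read by CellTox Green fluorescence and viability by CellTiter-Glo luminescence (multiplexed), normalised to DMSO and benzethonium chloride controls. EC50 is the inflection point of the fitted dose-response curve (bottom asymptote free, so it can be relative for partial curves) and is censored at the highest tested concentration. Rows with DSS 0 (no meaningful response) were excluded.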

SK-BR-3 [11] = tested on: SK-BR-3; remark: listed apart in the source
How it was run: (§3)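 Compound dissolved in 5 µl medium was placed in 384-well plates before 20 µl of breast cancer cell suspension was added, and the plates were incubated for 72 h. Cells then received 2.5 µl CellTiter-Blue for 2 h at 37 °C, and fluorescence was read at 560/590 nm. EC50 values come from percent-inhibition dose-response fits that were censored at the highest concentration, with plates normalised to vehicle and a positive kill control and rows with a zero drug sensitivity score excluded.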

MDA-MB-436 [12] = tested on: MDA-MB-436
How it was run: as §3

BT-549 [13] = tested on: BT-549; remark: listed apart in the source
How it was run: as §3

MDA-MB-231 [14] = tested on: MDA-MB-231
How it was run: as §3

HCC1937 [15] = tested on: HCC1937; remark: listed apart in the source
How it was run: as §3

HCC1599 [16] = tested on: HCC1599
How it was run: as §3

MDA-MB-468 [17] = tested on: MDA-MB-468
How it was run: as §3

MDA-MB-436 [18] = tested on: MDA-MB-436; remark: listed apart in the source
How it was run: as §1

CAL-120 [19] = tested on: CAL-120
How it was run: as §1

MDA-MB-231 [20] = tested on: MDA-MB-231; remark: listed apart in the source
How it was run: as §1

CAL-51 = tested on: CAL-51
How it was run: as §1

CAL-85-1 [21] = tested on: CAL-85-1
How it was run: as §1

HCC1599 [22] = tested on: HCC1599; remark: listed apart in the source
How it was run: as §1

CAL-148 [23] = tested on: CAL-148
How it was run: as §1

MDA-MB-453 [24] = tested on: MDA-MB-453
How it was run: as §1

BT-474 [25] = tested on: BT-474; remark: listed apart in the source
Procedure: as §2

HCC1937 [26] = tested on: HCC1937; remark: listed apart in the source
Procedure: as §2

CAL-85-1 [27] = tested on: CAL-85-1; remark: listed apart in the source
Procedure: as §2

CAL-148 [28] = tested on: CAL-148; remark: listed apart in the source
Procedure: as §2

DU-4475 [29] = tested on: DU-4475; remark: listed apart in the source
Procedure: as §2

Hs578T [30] = tested on: Hs578T; remark: listed apart in the source
Procedure: as §2

CAL-148 [31] = tested on: CAL-148; remark: listed apart in the source
How it was run: as §3

MDA-MB-436 [32] = tested on: MDA-MB-436; remark: listed apart in the source
Procedure: as §2

HCC1599 [33] = tested on: HCC1599; remark: listed apart in the source
Procedure: as §2

CAL-120 [34] = tested on: CAL-120; remark: listed apart in the source
How it was run: as §3

CAL-120 [35] = tested on: CAL-120; remark: listed apart in the source
Procedure: as §2

MCF-10A [36] = tested on: MCF-10A; remark: listed apart in the source
Procedure: as §2

MDA-MB-468 [37] = tested on: MDA-MB-468; remark: listed apart in the source
Procedure: as §2

MDA-MB-453 [38] = tested on: MDA-MB-453; remark: listed apart in the source
Procedure: as §2

HCC1143 [39] = tested on: HCC1143; remark: listed apart in the source
How it was run: as §3

BT-474 [40] = tested on: BT-474; remark: listed apart in the source
How it was run: as §3

MFM-223 [41] = tested on: MFM-223; remark: listed apart in the source
How it was run: as §3

Hs578T [42] = tested on: Hs578T; remark: listed apart in the source
How it was run: as §3

- EC50, CellTiter-Glo (SK-BR-3 [1]): 2580 nM
- EC50, CellTiter-Glo (HCC1143 [2]): 2640 nM
- EC50, CellTiter-Glo (BT-474 [3]): 857 nM
- EC50, CellTiter-Glo (BT-549 [4]): 1520 nM
- EC50, CellTiter-Glo (HCC1937 [6]): > 10000 nM
- EC50, CellTiter-Blue viability (SK-BR-3 [11]): 6100 nM
- EC50, CellTiter-Blue viability (MDA-MB-436 [12]): 1390 nM
- EC50, CellTiter-Blue viability (BT-549 [13]): 5190 nM
- EC50, CellTiter-Blue viability (MDA-MB-231 [14]): 2870 nM
- EC50, CellTiter-Blue viability (HCC1937 [15]): 619 nM
- EC50, CellTiter-Blue viability (HCC1599 [16]): 1350 nM
- EC50, CellTiter-Blue viability (MDA-MB-468 [17]): 6910 nM
Compound: N#Cc1ccc(COC[C@H]2O[C@@H](n3c(NCc4ccc(Cl)c(Cl)c4)nc4c(N)ncnc43)[C@H](O)[C@@H]2O)cc1
- EC50, CellTiter-Glo (MCF-10A [5]): 2640 nM
- EC50, CellTiter-Glo (HDQ-P1): 3550 nM
- EC50, CellTiter-Glo (DU-4475 [7]): 1170 nM
- EC50, CellTiter-Glo (MFM-223 [8]): 4530 nM
- EC50, CellTiter-Glo (Hs578T [9]): 1740 nM
- EC50, CellTox Green (MFM-223 [10]): 1000 nM

- EC50, CellTiter-Glo (SK-BR-3 [1]): 6390 nM
- EC50, CellTiter-Glo (HCC1143 [2]): 7820 nM
- EC50, CellTiter-Glo (MDA-MB-436 [18]): 1560 nM
- EC50, CellTiter-Glo (BT-474 [3]): 2160 nM
- EC50, CellTiter-Glo (BT-549 [4]): 548 nM
- EC50, CellTiter-Glo (MDA-MB-231 [20]): 1430 nM
- EC50, CellTiter-Glo (HCC1937 [6]): 4060 nM
- EC50, CellTiter-Glo (HCC1599 [22]): 5830 nM
- EC50, CellTiter-Glo (MDA-MB-453 [24]): 8350 nM
Compound: COc1cc(O)c2c(c1)/C=C/C[C@H](O)[C@H](O)C(=O)/C=C\C[C@H](C)OC2=O [(5Z)-7-Oxozeaenol]
- EC50, CellTiter-Glo (CAL-120 [19]): 2450 nM
- EC50, CellTiter-Glo (MCF-10A [5]): 532 nM
- EC50, CellTiter-Glo (CAL-51): 3770 nM
- EC50, CellTiter-Glo (CAL-85-1 [21]): 605 nM
- EC50, CellTiter-Glo (CAL-148 [23]): 1460 nM
- EC50, CellTiter-Glo (HDQ-P1): 2330 nM
- EC50, CellTiter-Glo (DU-4475 [7]): 173 nM
- EC50, CellTiter-Glo (MFM-223 [8]): 2170 nM
- EC50, CellTiter-Glo (Hs578T [9]): 3250 nM
- EC50, CellTox Green (BT-474 [25]): 4930 nM
- EC50, CellTox Green (HCC1937 [26]): 305 nM
- EC50, CellTox Green (CAL-85-1 [27]): 66.5 nM
- EC50, CellTox Green (CAL-148 [28]): 75.8 nM
- EC50, CellTox Green (DU-4475 [29]): 759 nM
- EC50, CellTox Green (MFM-223 [10]): 277 nM
- EC50, CellTox Green (Hs578T [30]): 253 nM

- EC50, CellTiter-Glo (SK-BR-3 [1]): 970 nM
- EC50, CellTiter-Glo (BT-474 [3]): 2620 nM
- EC50, CellTiter-Glo (HCC1599 [22]): 8240 nM
- EC50, CellTiter-Blue viability (SK-BR-3 [11]): 1050 nM
- EC50, CellTiter-Blue viability (MDA-MB-231 [14]): 8030 nM
Compound: COc1cc(OC2CCN(C)CC2)ccc1Nc1ncc2c(n1)n(C1CCCC1)c(=O)n2C [AZ 3146]
- EC50, CellTiter-Glo (MCF-10A [5]): 9260 nM
- EC50, CellTiter-Glo (CAL-51): 1010 nM
- EC50, CellTiter-Glo (CAL-85-1 [21]): 3780 nM
- EC50, CellTiter-Blue viability (CAL-148 [31]): 1990 nM
- EC50, CellTox Green (MDA-MB-436 [32]): > 10000 nM
- EC50, CellTox Green (HCC1599 [33]): > 10000 nM
- EC50, CellTiter-Blue viability (CAL-120 [34]): > 10000 nM

- EC50, CellTiter-Glo (SK-BR-3 [1]): 229 nM
- EC50, CellTiter-Glo (HCC1143 [2]): 803 nM
- EC50, CellTiter-Glo (MDA-MB-436 [18]): 1250 nM
- EC50, CellTiter-Glo (BT-474 [3]): 458 nM
- EC50, CellTiter-Glo (BT-549 [4]): 1010 nM
- EC50, CellTiter-Glo (MDA-MB-231 [20]): 564 nM
- EC50, CellTiter-Glo (HCC1937 [6]): 2180 nM
- EC50, CellTiter-Glo (HCC1599 [22]): 826 nM
- EC50, CellTiter-Glo (MDA-MB-453 [24]): 158 nM
- EC50, CellTiter-Blue viability (SK-BR-3 [11]): 200 nM
- EC50, CellTiter-Blue viability (HCC1143 [39]): 971 nM
- EC50, CellTiter-Blue viability (MDA-MB-436 [12]): 553 nM
- EC50, CellTiter-Blue viability (BT-474 [40]): 889 nM
- EC50, CellTiter-Blue viability (BT-549 [13]): 1890 nM
- EC50, CellTiter-Blue viability (MDA-MB-231 [14]): 684 nM
- EC50, CellTiter-Blue viability (HCC1937 [15]): 578 nM
- EC50, CellTiter-Blue viability (HCC1599 [16]): 348 nM
- EC50, CellTiter-Blue viability (MDA-MB-468 [17]): 1940 nM
Compound: O=C(/C=C/c1cccc(S(=O)(=O)Nc2ccccc2)c1)NO [Belinostat]
- EC50, CellTiter-Glo (CAL-120 [19]): 634 nM
- EC50, CellTiter-Glo (MCF-10A [5]): 1150 nM
- EC50, CellTiter-Glo (CAL-51): 29.2 nM
- EC50, CellTiter-Glo (CAL-85-1 [21]): 738 nM
- EC50, CellTiter-Glo (CAL-148 [23]): 370 nM
- EC50, CellTiter-Glo (HDQ-P1): 2830 nM
- EC50, CellTiter-Glo (DU-4475 [7]): 358 nM
- EC50, CellTiter-Glo (MFM-223 [8]): 264 nM
- EC50, CellTiter-Glo (Hs578T [9]): 989 nM
- EC50, CellTiter-Blue viability (CAL-148 [31]): 322 nM
- EC50, CellTox Green (CAL-120 [35]): 1410 nM
- EC50, CellTox Green (BT-474 [25]): 1600 nM
- EC50, CellTox Green (MCF-10A [36]): 30.4 nM
- EC50, CellTox Green (CAL-85-1 [27]): 1010 nM
- EC50, CellTox Green (CAL-148 [28]): 1070 nM
- EC50, CellTox Green (DU-4475 [29]): 519 nM
- EC50, CellTox Green (MDA-MB-468 [37]): 3690 nM
- EC50, CellTox Green (MFM-223 [10]): 745 nM
- EC50, CellTox Green (Hs578T [30]): 1260 nM
- EC50, CellTox Green (MDA-MB-453 [38]): > 10000 nM
- EC50, CellTiter-Blue viability (CAL-120 [34]): 204 nM
- EC50, CellTiter-Blue viability (MFM-223 [41]): 605 nM
- EC50, CellTiter-Blue viability (Hs578T [42]): 1890 nM

Source: the supplement of paper PMC4862054
